Test results taken from PMC11067372, “Evaluation of the antiplasmodial efficacy of synthetic 2,5-diphenyloxazole analogs of compounds naturally derived from Oxytropis lanata” (International Journal for Parasitology: Drugs and Drug …, 2024).

Assays:
[1] = In vitro toxicity to human cells (cell viability assay); type: cell-based; conditions: human foreskin fibroblasts (HFFs), average ± SD, three independent experiments
Description: HFF cells are selected for cytotoxicity testing in this study, providing a physiologically relevant model for the evaluation of drug interactions with human cells. […] This designation makes them a suitable model for the investigation of cellular processes and their sensitivity to toxic substances, which is crucial for the early identification of potential adverse effects of drugs during the development process.
The IC50 or CC50 values were determined from three independent experiments by plotting the logarithmic concentration of the compound against the percent parasite inhibition or cell growth inhibition, respectively. Nonlinear regression analysis was conducted using GraphPad Prism 10 (GraphPad Software, Inc., La Jolla, CA, USA). Comparisons between groups were evaluated using either one-way or two-way ANOVA followed by Tukey's or Fisher's multiple comparisons tests. A p-value of <0.05 was considered to indicate statistical significance and is denoted by an asterisk or a symbol. The meaning of each symbol is specified in the corresponding figure legend alongside the name of the employed test.

[2] = test system: P. falciparum 3D7; test: Stage-specific assay on ring and schizont stages (SYBR Green I, 24 h); type: cell-based, Plasmodium falciparum; conditions: eight concentrations from 100-fold IC50
Description: (§1) To ensure uniformity, the parasites underwent a rigorous synchronization process using a two-step sorbitol treatment procedure. This synchronized parasite population was harnessed within a 2-h window for the ring stage, 8–10 h for the trophozoite stage, and 24–26 h for the schizont stage. Subsequent to sorbitol treatment, early trophozoites could be obtained within 6–8 h after the initial sorbitol treatment (within 20 h of development), while early schizonts could be obtained after an additional 16 h of incubation (within 36 h of development). Beyond 36 h, the schizonts mature, causing the rupture of red blood cells (RBCs) and the consequent release of merozoites, which promptly infect new RBCs.
Wells containing only the test compounds and erythrocytes were included to correct for background activity. The 96-well plates were incubated for 24 h at 37 °C in an atmosphere of 5% CO2 and 5% O2. The growth of P. falciparum 3D7 was detected using a SYBR Green I-based fluorescence assay.

[3] = test system: P. falciparum 3D7; test: Stage-specific microscopy examination (ring, trophozoite, schizont); type: cell-based, Plasmodium falciparum; conditions: for Inhibition of the life cycle at 10- and 1-fold IC50: 24 h; for Parasite morphology after 24 h treatment: ring, trophozoite, schizont stages, artemisinin and chloroquine at all concentrations, Compounds 31 and 32 at 100 times IC50
Description: as §1
The negative control group consisted of cultures treated solely with complete medium and was designated the no treatment (NT) group. This analysis was repeated three times at each concentration. Following a 24-h incubation period, the culture in a 96-well plate was centrifuged at 1300 g for 5 min to settle down the iRBC; then, the supernatants were removed, and the iRBCs were washed with fresh media at the same volume as the initial culture. The centrifugation and washing were repeated 3 times, allowing the compound to be diluted by approximately 1000 times. Subsequently, thin blood smears from each treatment group were prepared using 1 μL of settled iRBCs. The proportion of parasites affected by the drug, including those with both abnormal and retained morphologies, was calculated by examining 100 parasites and counting the number displaying irregular development. Subsequently, the number of abnormal parasites was divided by the total count and then multiplied by 100 to obtain a percentage. The parameters used to define normal and abnormal morphologies can be found in Table S3 and Fig. S1.

[4] = Hemolysis rate; type: cell-based; conditions: erythrocytes (red blood cells)

SMILES	CC50 [1]	Stage specificity (ring and schizont stages) [2]	Inhibition of the life cycle at 10- and 1-fold IC50 [3]	Parasite morphology after 24 h treatment [3]	hemolysis at 1000 µM [4]
COc1cccc(-c2ncc(-c3ccccc3O)o2)c1OC [Compound 31, 2-(2′,3′-dimethoxyphenyl)-5-(2″-hydroxyphenyl)oxazole]	> 336 µM	classic slow-acting profile, which only gains significant activity at elevated concentrations	only partial inhibition of the life cycle	abnormal phenotype of ring-stage parasites	< 3%
COc1cccc(-c2ncc(-c3ccccc3OCc3ccccc3)o2)c1OC [Compound 32, 2-(2′,3′-dimethoxyphenyl)-5-(2″-benzyloxyphenyl)oxazole]	> 258 µM	effect on the ring and schizont stages is comparable to those positive controls	only partial inhibition of the life cycle	abnormal phenotype of ring-stage parasites	< 3%
